Measurements published in BindingDB's records for doi:10.1021/jm00076a030 (Eli Lilly, 1994).

Target: Leukotriene B4 receptor (Cavia porcellus)
Assay: Tested for inhibition of specific binding of [3H]LTB4 to guinea pig lung membranes expressing LTB4 receptor

Row | Structure (SMILES) | Ki
1 | CCc1cc(-c2ccccc2)c(O)cc1OCCCOc1ccc2c(=O)c3ccccc3oc2c1CCC(=O)O [3-{3-[3-(5-Ethyl-2-hydroxy-biphenyl-4-yloxy)-propoxy]-9-oxo-9H-xanthen-4-yl}-propionic acid] | 12 nM
2 | CCc1cc(-c2ccccc2)c(O)cc1OCCCOc1ccc2c(=O)c3cc(C(=O)O)ccc3oc2c1CCC(=O)O [5-(2-Carboxy-ethyl)-6-[3-(5-ethyl-2-hydroxy-biphenyl-4-yloxy)-propoxy]-9-oxo-9H-xanthene-2-carboxylic acid] | 0.11 nM
